How the values were obtained:
TYK2 JH2 domain = TYK2 JH2 domain (Homo sapiens (Human), UniProt P29597); test: TYK2 JH2 NanoBRET assay; format: binding; conditions: Table 20, read-out: TYK2 IC50
In short: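 Tracer displacement measured by BRET ratio (acceptor over donor) in live HEK293T cells transfected with a NanoLuc-tagged TYK2 JH2 construct; cells co-exposed to test compound and 0.5 µM final K10 tracer for 2 h before substrate/extracellular inhibitor addition.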

human JAK3 = human JAK3 (Homo sapiens (Human), UniProt P52333); test: JAK3 TR-FRET kinase assay; format: biochemical; conditions: JAK3 0.0125 nM
Sequence of human JAK3 (P52333 whole entry): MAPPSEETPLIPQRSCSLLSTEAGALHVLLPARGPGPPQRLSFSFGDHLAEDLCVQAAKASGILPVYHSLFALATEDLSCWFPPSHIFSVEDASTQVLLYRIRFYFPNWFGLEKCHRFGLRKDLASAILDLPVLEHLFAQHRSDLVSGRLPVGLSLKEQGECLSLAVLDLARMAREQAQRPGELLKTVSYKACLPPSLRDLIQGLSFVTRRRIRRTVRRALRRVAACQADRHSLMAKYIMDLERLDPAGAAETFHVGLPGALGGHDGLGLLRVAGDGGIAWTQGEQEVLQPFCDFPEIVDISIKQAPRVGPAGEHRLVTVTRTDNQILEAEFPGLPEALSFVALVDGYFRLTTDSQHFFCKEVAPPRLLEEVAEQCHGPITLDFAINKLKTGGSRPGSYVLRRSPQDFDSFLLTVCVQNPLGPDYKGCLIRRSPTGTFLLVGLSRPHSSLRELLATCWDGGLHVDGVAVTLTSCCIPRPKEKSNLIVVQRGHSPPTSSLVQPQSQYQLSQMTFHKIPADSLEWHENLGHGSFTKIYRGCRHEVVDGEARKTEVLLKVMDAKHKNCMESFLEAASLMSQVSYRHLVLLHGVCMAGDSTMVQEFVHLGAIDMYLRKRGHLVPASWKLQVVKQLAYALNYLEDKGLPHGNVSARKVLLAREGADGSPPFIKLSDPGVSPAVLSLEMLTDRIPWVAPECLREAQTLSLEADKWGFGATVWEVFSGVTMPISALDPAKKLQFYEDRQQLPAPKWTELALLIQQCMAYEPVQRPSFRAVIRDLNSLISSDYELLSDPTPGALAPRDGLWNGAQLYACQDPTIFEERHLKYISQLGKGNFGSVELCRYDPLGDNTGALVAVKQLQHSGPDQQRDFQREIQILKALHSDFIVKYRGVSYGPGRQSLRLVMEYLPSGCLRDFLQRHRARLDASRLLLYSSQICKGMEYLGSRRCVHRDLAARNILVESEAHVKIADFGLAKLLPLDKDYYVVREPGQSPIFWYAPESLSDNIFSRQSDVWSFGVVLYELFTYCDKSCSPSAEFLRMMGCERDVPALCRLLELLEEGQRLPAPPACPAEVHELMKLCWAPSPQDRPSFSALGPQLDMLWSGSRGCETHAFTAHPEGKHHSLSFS

human JAK2 = human JAK2 (Homo sapiens (Human), UniProt O60674); test: JAK2 TR-FRET kinase assay; format: biochemical; conditions: JAK2 0.025 nM
Sequence of human JAK2 (O60674 whole entry): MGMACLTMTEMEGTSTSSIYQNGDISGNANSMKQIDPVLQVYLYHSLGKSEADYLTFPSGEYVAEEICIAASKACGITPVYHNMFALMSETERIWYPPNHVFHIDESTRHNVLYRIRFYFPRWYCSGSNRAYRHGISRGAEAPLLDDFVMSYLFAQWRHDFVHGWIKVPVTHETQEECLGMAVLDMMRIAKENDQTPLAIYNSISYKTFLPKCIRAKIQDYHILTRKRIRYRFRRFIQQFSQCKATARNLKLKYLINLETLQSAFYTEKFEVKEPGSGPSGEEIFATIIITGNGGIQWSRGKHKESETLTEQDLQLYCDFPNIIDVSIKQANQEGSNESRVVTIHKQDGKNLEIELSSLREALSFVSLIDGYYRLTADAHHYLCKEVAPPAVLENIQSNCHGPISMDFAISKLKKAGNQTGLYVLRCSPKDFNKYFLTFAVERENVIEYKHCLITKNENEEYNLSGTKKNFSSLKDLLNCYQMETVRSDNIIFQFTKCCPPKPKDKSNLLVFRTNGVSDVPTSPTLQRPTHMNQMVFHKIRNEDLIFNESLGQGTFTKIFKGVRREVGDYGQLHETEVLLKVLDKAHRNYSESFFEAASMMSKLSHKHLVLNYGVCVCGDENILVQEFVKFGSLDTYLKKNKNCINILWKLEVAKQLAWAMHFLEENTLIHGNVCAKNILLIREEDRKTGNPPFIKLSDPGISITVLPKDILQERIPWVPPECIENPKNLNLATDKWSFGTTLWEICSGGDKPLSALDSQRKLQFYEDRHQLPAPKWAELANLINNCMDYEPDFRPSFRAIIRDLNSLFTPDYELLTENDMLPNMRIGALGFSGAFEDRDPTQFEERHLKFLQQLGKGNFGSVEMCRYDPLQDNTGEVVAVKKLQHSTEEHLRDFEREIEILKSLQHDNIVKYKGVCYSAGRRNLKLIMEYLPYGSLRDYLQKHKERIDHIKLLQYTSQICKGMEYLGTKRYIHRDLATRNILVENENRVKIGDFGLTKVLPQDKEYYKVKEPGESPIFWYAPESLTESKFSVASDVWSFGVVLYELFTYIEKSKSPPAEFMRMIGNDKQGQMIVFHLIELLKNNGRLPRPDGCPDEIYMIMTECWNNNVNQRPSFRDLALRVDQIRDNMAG

human JAK1 = human JAK1 (Homo sapiens (Human), UniProt P23458); test: JAK1 TR-FRET kinase assay; format: biochemical; conditions: TR-FRET, JAK1 2.5 nM
Sequence of human JAK1 (P23458 whole entry): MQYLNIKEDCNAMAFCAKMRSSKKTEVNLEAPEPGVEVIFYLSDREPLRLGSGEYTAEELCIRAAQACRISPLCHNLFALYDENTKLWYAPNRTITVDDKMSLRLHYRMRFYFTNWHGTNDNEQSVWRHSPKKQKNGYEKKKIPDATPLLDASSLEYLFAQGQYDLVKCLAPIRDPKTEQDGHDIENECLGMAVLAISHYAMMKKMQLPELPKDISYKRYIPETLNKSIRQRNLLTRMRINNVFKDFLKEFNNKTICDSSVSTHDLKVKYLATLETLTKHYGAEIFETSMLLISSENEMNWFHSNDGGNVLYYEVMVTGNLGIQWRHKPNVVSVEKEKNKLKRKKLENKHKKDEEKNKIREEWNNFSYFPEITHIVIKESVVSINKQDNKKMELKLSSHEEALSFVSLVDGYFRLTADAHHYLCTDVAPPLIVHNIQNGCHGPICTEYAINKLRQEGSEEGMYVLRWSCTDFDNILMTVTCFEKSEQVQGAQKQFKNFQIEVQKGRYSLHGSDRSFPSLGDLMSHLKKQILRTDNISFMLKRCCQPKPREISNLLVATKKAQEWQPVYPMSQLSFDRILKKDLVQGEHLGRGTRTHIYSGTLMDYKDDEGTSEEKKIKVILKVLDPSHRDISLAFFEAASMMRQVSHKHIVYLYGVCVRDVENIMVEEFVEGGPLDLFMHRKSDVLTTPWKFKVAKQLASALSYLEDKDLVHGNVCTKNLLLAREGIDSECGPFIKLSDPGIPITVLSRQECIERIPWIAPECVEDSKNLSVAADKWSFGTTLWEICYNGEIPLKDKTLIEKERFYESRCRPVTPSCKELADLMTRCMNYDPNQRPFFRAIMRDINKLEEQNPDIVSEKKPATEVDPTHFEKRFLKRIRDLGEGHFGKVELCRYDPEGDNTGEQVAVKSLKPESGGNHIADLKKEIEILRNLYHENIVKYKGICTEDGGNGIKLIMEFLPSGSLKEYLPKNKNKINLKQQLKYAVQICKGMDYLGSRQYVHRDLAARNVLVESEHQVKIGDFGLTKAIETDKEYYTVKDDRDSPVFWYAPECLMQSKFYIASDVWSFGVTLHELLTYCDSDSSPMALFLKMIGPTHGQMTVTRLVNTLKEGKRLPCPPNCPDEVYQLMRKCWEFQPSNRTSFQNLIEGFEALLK

Sequence of TYK2 JH2 domain (P29597 589-875): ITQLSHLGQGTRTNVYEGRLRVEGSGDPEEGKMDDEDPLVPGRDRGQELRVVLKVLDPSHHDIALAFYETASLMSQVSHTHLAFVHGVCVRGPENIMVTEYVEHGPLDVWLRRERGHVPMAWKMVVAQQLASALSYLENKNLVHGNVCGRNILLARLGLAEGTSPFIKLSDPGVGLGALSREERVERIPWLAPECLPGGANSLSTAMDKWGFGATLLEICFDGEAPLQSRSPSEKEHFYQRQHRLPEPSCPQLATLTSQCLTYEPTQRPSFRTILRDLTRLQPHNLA

Row | IC50 (TYK2 JH2 domain) [nM] | IC50 (human JAK3) [nM] | IC50 (human JAK2) [nM] | IC50 (human JAK1) [nM] | SMILES
1 | 5 to 50 | 50 to 500 | ≥ 500 | ≥ 500 | CCC(=O)c1cnc(Nc2ccc(OCCOC)cn2)cc1Nc1cccc(-c2ncn(C)n2)c1OC [Compound 18D]
2 | < 5 | ≥ 500 | ≥ 500 | ≥ 500 | CCC(=O)c1cnc(Nc2cc(C(=O)N(C)C)ccn2)cc1Nc1cccc(-c2ncn(C)n2)c1OC [Compound 8H]
3 | 5 to 50 | ≥ 500 | ≥ 500 | ≥ 500 | CCC(=O)c1cnc(Nc2cnc(OCCN3CCOCC3)cn2)cc1Nc1cccc(-c2ncn(C)n2)c1OC [Compound 18GGG]
4 | < 5 | 50 to 500 | ≥ 500 | ≥ 500 | CCC(=O)c1cnc(Nc2ccc([C@H](C)N3CC[C@H](O)C3)cn2)cc1Nc1cccc(-c2ncn(C)n2)c1OC [Compound 9LL]
5 | < 5 | ≥ 500 | ≥ 500 | ≥ 500 | [2H]C([2H])([2H])CC(=O)c1cnc(Nc2ccn(-c3ccccc3)c(=O)n2)cc1Nc1cccc(-c2ncn(C)n2)c1OC [Compound 15T]
6 | 5 to 50 | ≥ 500 | ≥ 500 | ≥ 500 | CCC(=O)c1cnc(Nc2cn([C@H]3C[C@@H](O)C3)cn2)cc1Nc1cccc(-c2ncn(C)n2)c1OC [Compound 21P]
7 | 5 to 50 | 50 to 500 | 50 to 500 | ≥ 500 | CCC(=O)c1cnc(Nc2ccc(-c3ccc[nH]c3=O)cn2)cc1Nc1cccc(-c2ncn(C)n2)c1OC [Compound 15W]
8 | 5 to 50 | ≥ 500 | ≥ 500 | ≥ 500 | CCC(=O)c1cnc(Nc2cnc(OCCn3ccnc3C)cn2)cc1Nc1cccc(-c2ncn(C)n2)c1OC [Compound 18III]
9 | < 5 | ≥ 500 | ≥ 500 | ≥ 500 | CCC(=O)c1cnc(Nc2ccc(CN3CC[C@H](F)C3)cn2)cc1Nc1cccc(-c2ncn(C)n2)c1OC [Compound 9KK]
10 | < 5 | ≥ 500 | ≥ 500 | ≥ 500 | CCC(=O)c1cnc(Nc2ccc(OCCO)nn2)cc1Nc1cccc(-c2ncn(C)n2)c1OC [Compound 18M]
11 | 5 to 50 | ≥ 500 | ≥ 500 | ≥ 500 | CCC(=O)c1cnc(Nc2cnc(C3(NC)CC3)cn2)cc1Nc1cccc(-c2ncn(C)n2)c1OC [Compound 9ZZZ]
12 | 50 to 500 | 50 to 500 | 50 to 500 | ≥ 500 | CCC(=O)c1cnc(Nc2ccc(S(C)(=O)=O)cn2)cc1Nc1ccc(CO)cc1OC [Compound 13X]
13 | 5 to 50 | 50 to 500 | ≥ 500 | ≥ 500 | CCC(=O)c1cnc(Nc2ccc(S(C)(=O)=O)cn2)cc1Nc1cccc(CO)c1OC [Compound 13P]
14 | < 5 | 50 to 500 | 50 to 500 | ≥ 500 | CCC(=O)c1cnc(Nc2ccc(OC3COC3)c(C)n2)cc1Nc1cccc(-c2ncn(C)n2)c1OC [Compound 18ZZZ]
15 | 50 to 500 | ≥ 500 | ≥ 500 | ≥ 500 | CCC(=O)c1cnc(NC(=O)CCNC)cc1Nc1cccc(-c2ncn(C)n2)c1OC [Compound 23H]
16 | 5 to 50 | ≥ 500 | ≥ 500 | ≥ 500 | CCC(=O)c1cnc(Nc2cnc(O[C@@H]3CCN(C)C3)c(C)n2)cc1Nc1cccc(-c2ncn(C)n2)c1OC [Compound 18JJJ]
17 | 50 to 500 | ≥ 500 | ≥ 500 | ≥ 500 | CCC(=O)c1cnc(Nc2ccn(CC3CCO3)n2)cc1Nc1cccc(-c2ncn(C)n2)c1OC (stereo not shown) [Compound 21V]
18 | 50 to 500 | ≥ 500 | ≥ 500 | ≥ 500 | CCC(=O)c1cnc(Nc2ccn(CC3CN(C)C3)n2)cc1Nc1cccc(-c2ncn(C)n2)c1OC [Compound 21X]
19 | 5 to 50 | ≥ 500 | ≥ 500 | ≥ 500 | CCC(=O)c1cnc(Nc2ccc(O[C@@H]3CCN(C)C3)nn2)cc1Nc1cccc(-c2ncn(C)n2)c1OC [Compound 18FF]
20 | 5 to 50 | ≥ 500 | ≥ 500 | ≥ 500 | CCC(=O)c1cnc(Nc2ccc(O[C@H]3CCN(C)C3)nn2)cc1Nc1cccc(-c2ncn(C)n2)c1OC [Compound 18GG]
21 | 5 to 50 | ≥ 500 | ≥ 500 | ≥ 500 | CCC(=O)c1cnc(Nc2cnc(C(F)(F)CN(C)C)cn2)cc1Nc1cccc(-c2ncn(C)n2)c1OC [Compound 19C]

Row | IC50 (TYK2 JH2 domain) [nM] | IC50 (human JAK3) [nM] | IC50 (human JAK2) [nM] | IC50 (human JAK1) [nM] | SMILES
22 | < 5 | ≥ 500 | ≥ 500 | ≥ 500 | CCC(=O)c1cnc(Nc2ccc(-c3cnn(C)c3)cn2)cc1Nc1cccc(-c2ncn(C)n2)c1OC [Compound 15D]
23 | ≥ 500 | ≥ 500 | ≥ 500 | ≥ 500 | CCC(=O)c1cnc(NC(=O)[C@@H]2C[C@H]2C(=O)O)cc1Nc1cccc(-c2ncn(C)n2)c1OC [Compound 22C]
24 | 5 to 50 | ≥ 500 | ≥ 500 | ≥ 500 | CCC(=O)c1cnc(Nc2ccc(CCNC)cn2)cc1Nc1cccc(-c2ncn(C)n2)c1OC [Compound 11B]
25 | 5 to 50 | ≥ 500 | ≥ 500 | ≥ 500 | CCC(=O)c1cnc(Nc2ccc(CN(C)C)c(C(F)(F)F)n2)cc1Nc1cccc(-c2ncn(C)n2)c1OC [Compound 9RRRR]
26 | < 5 | ≥ 500 | ≥ 500 | ≥ 500 | CCC(=O)c1cnc(Nc2ccc(O[C@H]3CN(C)C[C@@H]3F)cn2)cc1Nc1cccc(-c2ncn(C)n2)c1OC [Compound 18UUU]
27 | < 5 | ≥ 500 | ≥ 500 | ≥ 500 | CCC(=O)c1cnc(Nc2ccc(C3(N)CC3)cn2)cc1Nc1cccc(-c2ncn(C)n2)c1OC [Compound 9O]
28 | < 5 | ≥ 500 | ≥ 500 | ≥ 500 | CCC(=O)c1cnc(Nc2ccc(O[C@@H]3CCOC3)cn2)cc1Nc1cccc(-c2ncn(C)n2)c1OC [Compound 18BB]
29 | 5 to 50 | 50 to 500 | ≥ 500 | ≥ 500 | CCC(=O)c1cnc(Nc2ccc(CN3CC(C#N)C3)cn2)cc1Nc1cccc(-c2ncn(C)n2)c1OC [Compound 9FF]
30 | 5 to 50 | ≥ 500 | ≥ 500 | ≥ 500 | CCC(=O)c1cnc(Nc2cnc(O[C@@H]3CCN(C)C[C@@H]3F)cn2)cc1Nc1cccc(-c2ncn(C)n2)c1OC [Compound 18SSS]
31 | 5 to 50 | ≥ 500 | ≥ 500 | ≥ 500 | CCC(=O)c1cnc(Nc2cnc(O[C@H]3CN(C)C[C@H]3F)cn2)cc1Nc1cccc(-c2ncn(C)n2)c1OC [Compound 18BBB]
32 | 50 to 500 | ≥ 500 | ≥ 500 | ≥ 500 | CCC(=O)c1cnc(Nc2cnc(C(F)(F)CNC)cn2)cc1Nc1cccc(-c2ncn(C)n2)c1OC [Compound 19B]
33 | < 5 | 50 to 500 | 50 to 500 | ≥ 500 | CCC(=O)c1cnc(Nc2ccc([C@@H](C)N3CC4(COC4)C3)cn2)cc1Nc1cccc(-c2ncn(C)n2)c1OC [Compound 9BBB]
34 | 5 to 50 | 50 to 500 | 50 to 500 | ≥ 500 | CCC(=O)c1cnc(Nc2cc(OC)n(CCOC)n2)cc1Nc1cccc(-c2ncn(C)n2)c1OC [Compound 21Y]
35 | 5 to 50 | 50 to 500 | 50 to 500 | ≥ 500 | CCC(=O)c1cnc(Nc2ccc(CN3CCS(=N)(=O)CC3)cn2)cc1Nc1cccc(-c2ncn(C)n2)c1OC [Compound 9WW]
36 | 50 to 500 | ≥ 500 | ≥ 500 | ≥ 500 | CCC(=O)c1cnc(Nc2ccc(S(C)(=O)=O)cn2)cc1Nc1cccc(C(C)(C)O)c1OC [Compound 13Y]
37 | < 5 | ≥ 500 | ≥ 500 | ≥ 500 | [2H]C([2H])([2H])N(Cc1ccc(Nc2cc(Nc3cccc(-c4ncn(C)n4)c3OC)c(C(=O)CC)cn2)nc1)C([2H])([2H])[2H] [Compound 9W]
38 | ≥ 500 | ≥ 500 | ≥ 500 | ≥ 500 | CCC(=O)c1cnc(Nc2cnc(O[C@@H]3CCN(C)C3)cn2)cc1Nc1nccc(-c2ncn(C)n2)c1OC [Compound 18CCC]
39 | < 5 | ≥ 500 | ≥ 500 | ≥ 500 | CCC(=O)c1cnc(Nc2ccc(C3(S(C)(=O)=O)CC3)nn2)cc1Nc1cccc(-c2ncn(C)n2)c1OC [Compound 13V]
40 | 5 to 50 | ≥ 500 | ≥ 500 | ≥ 500 | CCC(=O)c1cnc(Nc2ccn(C3CC(F)(F)C3)n2)cc1Nc1cccc(-c2ncn(C)n2)c1OC [Compound 21GG]
41 | < 5 | 50 to 500 | 50 to 500 | ≥ 500 | CCC(=O)c1cnc(Nc2ccc(CN3[C@H](C)COC[C@@H]3C)cn2)cc1Nc1cccc(-c2ncn(C)n2)c1OC [Compound 9TT]
42 | 5 to 50 | ≥ 500 | ≥ 500 | ≥ 500 | CCC(=O)c1cnc(Nc2ccc(C(C)(C)NC)nn2)cc1Nc1cccc(-c2ncn(C)n2)c1OC [Compound 9MMM]

Row | SMILES | IC50 (TYK2 JH2 domain) [nM] | IC50 (human JAK3) [nM] | IC50 (human JAK2) [nM] | IC50 (human JAK1) [nM]
43 | CCC(=O)c1cnc(Nc2ccc(CS(C)(=O)=O)cn2)cc1Nc1cccc(-c2ncn(C)n2)c1OC [Compound 13A, 1-(4-((2-methoxy-3-(1-methyl-1H-1,2,4-triazol-3-yl)phenyl)amino)-6-((5-((methylsulfonyl)methyl)pyridin-2-yl)amino)pyridin-3-yl)propan-1-one] | < 5 | 50 to 500 | 50 to 500 | ≥ 500

Source: patent US20230295119A1, “SUBSTITUTED PYRIDINES FOR THE TREATMENT OF INFLAMMATORY DISEASES” (GOSSAMER BIO SERVICES, INC., priority 2020, published 2023)
